Where a SMILES comes first, the peptide text is derived from it. [ ]: non-standard residue; d: D form. ξ: configuration not given here. ξW = NC(Cc1c[nH]c2ccccc12)C(=O)O
Structure (SMILES) | logP
CC(O)CN(C)C (stereo unspecified) | 0.2
Clc1cc(Cl)c2c(c1)Oc1c(ccc(Cl)c1Cl)O2 | 6.43
CC(C)NC(=O)N1C(=O)N(C)CC1O (stereo unspecified) | 0.96
Nc1nc(N)c2c(N)cccc2n1 | 0.3
CN1CC(O)N(C(=O)NC(C)(C)C)C1=O (stereo unspecified) | 1.38
CC(C)CC(NC(=O)C(N)Cc1c[nH]c2ccccc12)C(=O)NC(Cc1ccccc1)C(=O)NC(C)C(=O)NC(C)C(=O)O (stereo unspecified) (H-WLFAA-OH; configuration not given here) | -0.32
CCCCNc1ccncc1S(=O)(=O)NC(=NC#N)NC(C)C | 1.05
CN(C)C(C)(C)O | 0.2
CCN(CC)CCCC(C)NC(=O)c1ccc([N+](=O)[O-])cc1[N+](=O)[O-] (stereo unspecified) | 1.73
Cc1coc2nc3oc(=O)cc(C)c3cc12 | 1.64
CC(C(=O)O)c1ccc(OCc2ccccc2)c(F)c1 (stereo unspecified) | 3.61
CC1(C)C2Cc3ssc(=S)c3C1C2 (stereo unspecified) | 3.7
Cc1coc2c(C)c3oc(=O)cc(C)c3cc12 | 3.25
COc1ccc(CCNCC(O)COc2ccc(-c3nccs3)cc2)cc1OC (stereo unspecified) | 2.5
CN(c1nc2ccccc2s1)C1CCN(CCCCOc2ccc(F)cc2)CC1 | 5.37
Clc1cccc(N2CCN(CCn3nc4ccccc4n3)CC2)c1 | 4.1
CCSc1cccc2nc(N)nc(N)c12 | 2.27
C=CCNC(=O)N(CCCCC(NC(C)=O)C(=O)NCc1ccccc1)Cc1ccccc1 (stereo unspecified) | 1.98
C[N+](C)([O-])CC(c1ccccc1)c1ccccc1 | 1.01
CNC(=O)Cn1cccc(O)c1=O | -1.15
O=C1C=C(c2ccc(Cl)cc2)C(=O)N1c1ccc(Cl)cc1 | 3
COc1ccc(C2Cc3c(C#N)cccc3N(CCN(C)C)C(=O)C2OC(C)=O)cc1 (stereo unspecified) | 3.3
Cc1ccc(CO)c(C=NNC(=O)c2ccncc2)c1O | 2.16
O=S(=O)(NC(=S)NC1CCCCC1)c1cnccc1NC1CCCCCC1 | 4.71
CC(C)CC(NC(=O)C(N)C(C)C)C(=O)O (stereo not drawn) (H-Val-Leu-OH; configuration not given here) | -2.07

Structure (SMILES) | logP
OCC1OC(Oc2ccc(-c3ccccc3)cc2)C(O)C(O)C1O (stereo unspecified) | 1.79
CCCc1nc(N2CCOCC2)nc(N(C)C(=O)c2ccccc2)n1 | 2.01
CCC1(C(=O)NC(C)c2ccc(Cl)cc2)C(C)C1(Cl)Cl (stereo unspecified) | 4.23
COc1ccc(C2Cc3c(C)cccc3N(CCN(C)C)C(=O)C2OC(C)=O)cc1 (stereo unspecified) | 3.7
CCCCON=C(C)c1cccc(Oc2nc(OC)cc(OC)n2)c1C(=O)OC | 4.11
CCN(CC)C(=O)c1cn2c(C)c(C)nc2c2c1CCC(c1ccccc1)O2 (stereo unspecified) | 4
Brc1c2ccccc2c(Br)c2ccccc12 | 6.29
CC(C)CNc1ccncc1S(=O)(=O)NC(=NC#N)NC(C)C | 0.88
O=c1ccc2ccc3occc3c2[nH]1 | 1.82
NC(=S)NN=C(c1ccccc1)c1ccccn1 | 1.92
Brc1cc(Br)c2ccc3cccc4ccc1c2c43 | 6.85
CCC(C)C(NC(=O)C(CC(C)C)NC(=O)C(N)C(C)O)C(=O)O (stereo not drawn) (H-Thr-Leu-Ile-OH; configuration not given here) | -1.66
CC(C)NC(=NC#N)NS(=O)(=O)c1cnccc1NCc1ccccc1 | 1.36
S=C=NCCCCCCCCc1ccccc1 | 5.81
C=CCC1C(=O)N(CCN(C)C)c2cccc(C(F)(F)F)c2CC1c1ccc(OC)cc1 (stereo unspecified) | 6.6
CN1CC(O)N(C(=O)NC2CCCCC2)C1=O (stereo unspecified) | 1.87
Nc1nnnn1-c1c(Cl)cccc1Cl | 1.56
CC(C)CC(NC(=O)C(N)Cc1ccc(O)cc1)C(=O)NC(C(=O)O)C(C)C (stereo not drawn) (H-Tyr-Leu-Val-OH; configuration not given here) | -1.45
NC1=NCC(COc2cccc(C(F)(F)F)c2)O1 (stereo unspecified) | 2.35
NCC(=O)NC(Cc1c[nH]c2ccccc12)C(N)=O (stereo unspecified) (H-Gly-[ξW]-NH2) | -0.48
C=CC(=O)OCCCCCC | 3.33
Cc1ccc(C)c(OCC2CN=C(N)O2)c1 (stereo unspecified) | 2.29
CC(C)CC(N)C(=O)NC(Cc1ccccc1)C(=O)O (stereo not drawn) (H-Leu-Phe-OH; configuration not given here) | -1.15
Fc1ccccc1CNc1[nH]cnc2ncnc1-2 | 2.27
CCCCC(=O)c1ccncc1 | 2

Structure (SMILES) | logP
c1[nH]nc2c1CCC1c3n[nH]cc3CCC21 (stereo unspecified) | 0.3
CC(=O)O[C@H]1[C@@H](O)C[C@H](O[C@H]2[C@@H](O)C[C@H](O[C@H]3[C@@H](O)C[C@H](O[C@H]4CC[C@@]5(C)[C@H](CC[C@@H]6[C@@H]5C[C@@H](O)[C@]5(C)[C@@H](C7=CC(=O)OC7)CC[C@]65O)C4)O[C@@H]3C)O[C@@H]2C)O[C@@H]1C | 2
COC(=O)C(C)S(=O)(=O)c1ccc([N+](=O)[O-])cc1 (stereo unspecified) | 1.06
O=C(OC1Cc2c(O)cc(O)cc2OC1c1ccc(O)c(O)c1)c1ccc(O)c(O)c1 (stereo unspecified) | 2.45
CC(C)Nc1[nH]cnc2ncnc1-2 | 1.38
COc1ccccc1NC(=O)OCCN1CCCCC1 | 3.11
O=[N+]([O-])c1ncn(C2OC(CO)C(O)C2O)n1 (stereo unspecified) | -1.54
Nc1nc(N)c2c(S(=O)(=O)c3ccccc3)cccc2n1 | 2.14
O=C1N=C(N2CCOCC2)CN1c1ccc(Cl)cc1 | 1.5
COc1c2oc(=O)ccc2cc2ccsc12 | 2.66
O=[N+]([O-])c1nccn1COCC=CCO | -0.28
CON(C)C(=O)Nc1ccc(NS(C)(=O)=O)cc1 | 0.14
CN1CC(O)N(C(=O)NC2CCCC2)C1=O (stereo unspecified) | 1.47
CCCC(=NOCC)C1=C(O)CC(C)(C)OC1=O | 2.56
Nc1n[n+]([O-])c2ccccc2[n+]1[O-] | -0.3
Cc1ccc2c(c1)C(=O)N(CCO[N+](=O)[O-])CO2 | 2.41
O=c1cc(CCl)oc(Cl)c1O | 0.95
COc1ccc(CCNCC(O)COc2ccc(-c3nc(C(C)(C)C)c[nH]3)cc2)cc1OC (stereo unspecified) | 4.09
COc1cc2c(cc1OC)C(C=Cc1ccccc1)=NCC2 | 3.39
CC(C)(C)c1ccc(C(CCN2CCCCC2)c2ccccc2)cc1 (stereo unspecified) | 6.83
CCCCOCCCNc1[nH]cnc2ncnc1-2 | 2.22
CCN(CC)C1CCc2c(OC)cccc2C1C (stereo unspecified) | 3.47
Cn1c([N+](=O)[O-])cnc1C1=NOC2CCCCC12 (stereo unspecified) | 2.22
COCc1c(O)c(=O)cc(C)n1C | -0.42
COc1ccc(CCNCC(O)COc2ccc(-c3ncco3)cc2)cc1OC (stereo unspecified) | 2.6

Structure (SMILES) | logP
CC(C)(C)[N+]([O-])=Cc1ccc(Br)cc1 | 2
c1ccc(CCN2CCN(CCn3nc4ccccc4n3)CC2)cc1 | 3.72
CC(C)=CCNc1ncnc2c1ncn2[C@@H]1O[C@H](CO)[C@@H](O)[C@H]1O | 1.3
CCCc1nc(NC)nc(N2CCOCC2)n1 | 2.15
O=c1cc(CSCCO)occ1O | -0.69
C=CCNc1nc(CCC)nc(N2CCOCC2)n1 | 2.37
C=C1CC2c3c(O)cc(CCCCC)cc3OC(C)(C)C2CC1O (stereo unspecified) | 5.24
O=C(NC1CCCCCC1)NS(=O)(=O)c1cnccc1NC1CCCCCCC1 | 5.35
CCCCCCNCCO | 1.67
CC(C)n1cccc(O)c1=O | 0.79
Cc1ccc(OCC(O)C(C)NC(C)C)c2c1CCC2 (stereo unspecified) | 3.19
NC1=NCC(CN2CCC(C(=O)c3ccccc3)CC2)O1 (stereo unspecified) | 1.05
CNC1=NS(=O)N=C1NCCSCc1ccc(CN(C)C)o1 (stereo unspecified) | 0.89
CN1CCN(CCCOn2nnc3ccccc32)CC1 | 1.3
O=C1NC(=O)C(c2ccccc2)(c2ccccc2)N1S(=O)(=O)c1ccc(O)cc1 | 3.58
CCC(C)C(N)C(=O)NC(C(=O)NCC(=O)NC(Cc1ccccc1)C(=O)O)C(C)CC (stereo unspecified) (H-IIGF-OH; configuration not given here) | -0.99
NC(=O)c1[nH]cc(-c2ccc(Cl)cc2)c1N1CCOCC1 | 2.4
COC1CC(OC2C(O)CC(OC3CCC4(C)C(CCC5C4CC(O)C4(C)C(C6=CC(=O)OC6)CCC54O)C3)OC2C)OC(C)C1OC1CC(O)C(O)C(C)O1 (stereo unspecified) | 1.8
Cc1c(C)c2cc3ccoc3c(C)c2oc1=O | 3.25
CN(C)C(C)(C)CO | 0.29
CC(C)Nc1nc(=O)n(C(C)C)c(=O)n1C | 0.53
CCN(CCO)CCCOc1cc2ncnc(Nc3cc(CC(=O)Nc4cccc(F)c4F)[nH]n3)c2cc1OC | 3.5
O=C1CCC(=O)N1c1ccc(Cl)c(Cl)c1 | 1.35
CNC(C)Cc1ccc(OC)cc1 (stereo unspecified) | 1.91
Cn1c2c(c3cc(Cl)ccc31)CCNC2 | 2.3

Structure (SMILES) | logP
COc1cc2c(Nc3cc(CC(=O)Nc4cccc(F)c4F)[nH]n3)ncnc2cc1OCCCN1CCCC1CO (stereo unspecified) | 3.6
CC(C)CCCNc1ncnc2c1ncn2C1OC(CO)C(O)C1O (stereo unspecified) | 2.07
Clc1ccccc1N1CCN(CCn2nnc3ccccc32)CC1 | 3.35
Cc1ccc(CO)c(C=NNC(=O)c2ccc(O)cc2)c1O | 2.56
Cc1nc2ccccc2c(=O)n1CC(=O)N1CCCCC1 | 1.27
CC(C)(C)NCC(O)CON=C(C1CC1)C1CC1 (stereo unspecified) | 1.84
CC(C)NC(=NC#N)NS(=O)(=O)c1cnccc1Nc1cccc(C(F)(F)F)c1 | 2.54
CO[C@H]1C=CO[C@@]2(C)Oc3c(C)c(O)c4c(c3C2=O)C2=NC3(CCN(CC(C)C)CC3)NC2=C(NC(=O)C(C)=CC=C[C@H](C)[C@H](O)[C@@H](C)[C@@H](O)[C@@H](C)[C@H](OC(C)=O)[C@@H]1C)C4=O | 4.5
O=C(O)Cc1ccc2c(c1)SCc1ccccc1C2=O | 2.97
CC1=C(CC(=O)O)c2cc(F)ccc2C1=Cc1ccc(S(C)(=O)=O)cc1 | 3.29
O=C(O)CCCCON=C(c1ccccc1)c1ccncn1 | 2.27
CCON=C(C)c1cccc(Oc2nc(OC)cc(OC)n2)c1C(=O)OC | 2.96
COC(=O)C(C)=CC1C(C(=O)OCc2cccc(Cc3ccccc3)c2)C1(C)C (stereo unspecified) | 6.41
O=C1C=C(N2CCOCC2)CN1c1ccc(F)c(Cl)c1 | 2.2
COc1ccc(CCNCC(O)COc2ccc(-c3nc(C(C)C)c[nH]3)cc2)cc1OC (stereo unspecified) | 3.9
CC(C)NCC(O)COc1ccccc1C1CCCCC1 (stereo unspecified) | 3.68
O=C(NCCNCC(O)COc1ccc(CCOCCOCC2CC2)cc1)N1CCC(O)CC1 (stereo unspecified) | 1
Cc1cc(C)cc(Cc2c[nH]cn2)c1 | 2.52
C[N+](C)([O-])CCCC(c1ccccc1)c1ccccc1 | 1.45
CC(C)NC(=NC#N)NS(=O)(=O)c1cnccc1Nc1cccc(Br)c1 | 2.27
COC(=O)C(C)NP(=O)(OCC1C=CC(n2cc(C)c(=O)[nH]c2=O)O1)Oc1cccc(Cl)c1 (stereo unspecified) | 1.42
